Data from patent US9113629B2, “4-amino-6-(4-substituted-phenyl)-picolinates and 6-amino-2-(4-substituted-phenyl)-pyrimidine-4-carboxylates and their use as herbicides” (DOW AGROSCIENCES LLC, priority 2013, dated 2015).
Where two headings read alike, the source gives them in different places.

Columns and labels:
[1] = tested on: Key Broadleaf Weed and Crop Species; assay: Post-emergent Test II herbicidal activity (Table 5); type: in vivo; conditions: post-emergence, 336 h, 14 days after application
Method in brief: (§1)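 Plants grown in Metro-Mix 360 (pH 6.0–6.8) in a greenhouse (~15 h photoperiod, 23–29 °C day) to first or second true leaf stage, then sprayed with compound in acetone/DMSO/aqueous crop-oil-surfactant carrier at 187 L/ha by track sprayer. Injury visually scored 0–100% versus untreated plants after 14 d.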

[2] = tested on: Key Grass and Sedge Weeds as well as Grass Crops; assay: Post-emergent Test II herbicidal activity (Table 6); type: in vivo; conditions: post-emergence, 336 h; for pest or weed control at 70 g/ha: application rate 70 g ai/ha; for pest or weed control at 140 g/ha: application rate 140 g ai/ha
Method in brief: as §1

[3] = CYPES: yellow nutsedge (Cyperus esculentus), read-out: Visual Growth Reduction (%) 14 Days After Application, CYPES
[4] = DIGSA: crabgrass (Digitaria sanguinalis), read-out: Visual Growth Reduction (%) 14 Days After Application, DIGSA
[5] = ECHCG: barnyardgrass (Echinochloa crus-galli), read-out: Visual Growth Reduction (%) 14 Days After Application, ECHCG
[6] = ORYSA: rice (Oryza sativa), read-out: Visual Growth Reduction (%) 14 Days After Application, ORYSA
[7] = SETFA: giant foxtail (Setaria faberi), read-out: Visual Growth Reduction (%) 14 Days After Application, SETFA
[8] = SORVU: grain sorghum (Sorghum vulgare), read-out: Visual Growth Reduction (%) 14 Days After Application, SORVU
[9] = TRZSS (wheat, Triticum aestivum), read-out: Visual Growth Reduction (%) 14 Days After Application, TRZSS
[10] = ZEAMX: maize, corn (Zea mays), read-out: Visual Growth Reduction (%) 14 Days After Application, ZEAMX
[11] = Triticum aestivum, TRZSS (wheat), read-out: Visual Growth Reduction (%) 14 Days After Application, TRZSS

C=Cc1c(N)nc(-c2ccc(I)cc2)nc1C(=O)O [Compound 123, 6-Amino-2-(4-iodophenyl)-5-vinylpyrimidine-4-carboxylic acid]
melting point: 187 to 190 °C | pest or weed control at 70 g/ha ([1]; ABUTH: velvetleaf (Abutilon theophrasti), 70 g ai/ha, post-emergent, read-out: Visual Growth Reduction (%) 14 Days After Application ABUTH): 0 to 29% | pest or weed control at 140 g/ha ([1]; ABUTH: velvetleaf (Abutilon theophrasti), 140 g ai/ha, post-emergent, read-out: Visual Growth Reduction (%) 14 Days After Application ABUTH): 0 to 29% | pest or weed control at 70 g/ha ([1]; AMARE: redroot pigweed (Amaranthus retroflexus), 70 g ai/ha, post-emergent, read-out: Visual Growth Reduction (%) 14 Days After Application AMARE): 95 to 100% | pest or weed control at 140 g/ha ([1]; AMARE: redroot pigweed (Amaranthus retroflexus), 140 g ai/ha, post-emergent, read-out: Visual Growth Reduction (%) 14 Days After Application AMARE): 95 to 100% | pest or weed control at 70 g/ha ([1]; BRSNN: oilseed-rape, canola (Brassica napus), 70 g ai/ha, post-emergent, read-out: Visual Growth Reduction (%) 14 Days After Application BRSNN): 0 to 29% | pest or weed control at 140 g/ha ([1]; BRSNN: oilseed-rape, canola (Brassica napus), 140 g ai/ha, post-emergent, read-out: Visual Growth Reduction (%) 14 Days After Application BRSNN): 60 to 74% | pest or weed control at 70 g/ha ([1]; CHEAL: lambsquarters (Chenopodium album), 70 g ai/ha, post-emergent, read-out: Visual Growth Reduction (%) 14 Days After Application CHEAL): 0 to 29% | pest or weed control at 140 g/ha ([1]; CHEAL: lambsquarters (Chenopodium album), 140 g ai/ha, post-emergent, read-out: Visual Growth Reduction (%) 14 Days After Application CHEAL): 0 to 29% | pest or weed control at 70 g/ha ([1]; EPHHL: wild poinsettia (Euphorbia heterophylla), 70 g ai/ha, post-emergent, read-out: Visual Growth Reduction (%) 14 Days After Application EPHHL): 95 to 100% | pest or weed control at 140 g/ha ([1]; EPHHL: wild poinsettia (Euphorbia heterophylla), 140 g ai/ha, post-emergent, read-out: Visual Growth Reduction (%) 14 Days After Application EPHHL): 95 to 100% | pest or weed control at 70 g/ha ([1]; HELAN: sunflower (Helianthus annuus), 70 g ai/ha, post-emergent, read-out: Visual Growth Reduction (%) 14 Days After Application HELAN): 75 to 84% | pest or weed control at 140 g/ha ([1]; HELAN: sunflower (Helianthus annuus), 140 g ai/ha, post-emergent, read-out: Visual Growth Reduction (%) 14 Days After Application HELAN): 75 to 84% | pest or weed control at 70 g/ha ([1]; VIOTR: wild pansy (Viola tricolor), 70 g ai/ha, post-emergent, read-out: Visual Growth Reduction (%) 14 Days After Application VIOTR): 0 to 29% | pest or weed control at 140 g/ha ([1]; VIOTR: wild pansy (Viola tricolor), 140 g ai/ha, post-emergent, read-out: Visual Growth Reduction (%) 14 Days After Application VIOTR): 45 to 59% | pest or weed control at 70 g/ha [2, 3]: 0 to 29% | pest or weed control at 140 g/ha [2, 3]: 45 to 59% | pest or weed control at 70 g/ha [2, 4]: 0 to 29% | pest or weed control at 140 g/ha [2, 4]: 0 to 29% | pest or weed control at 70 g/ha [2, 5]: 75 to 84% | pest or weed control at 140 g/ha [2, 5]: 85 to 94% | pest or weed control at 70 g/ha [2, 6]: 0 to 29% | pest or weed control at 140 g/ha [2, 6]: 0 to 29% | pest or weed control at 70 g/ha [2, 7]: 0 to 29% | pest or weed control at 140 g/ha [2, 7]: 0 to 29% | pest or weed control at 70 g/ha [2, 8]: 30 to 44% | pest or weed control at 140 g/ha [2, 8]: 30 to 44% | pest or weed control at 70 g/ha [2, 9]: 0 to 29% | pest or weed control at 140 g/ha [2, 9]: 0 to 29% | pest or weed control at 70 g/ha [2, 10]: 45 to 59% | pest or weed control at 140 g/ha [2, 10]: 60 to 74%

COC(=O)c1nc(-c2ccc(I)c(F)c2F)cc(N)c1Cl [Compound 129, Methyl 4-amino-3-chloro-6-(2,3-difluoro-4-iodophenyl)picolinate]
melting point: 172 to 174 °C | pest or weed control at 70 g/ha ([1]; ABUTH: velvetleaf (Abutilon theophrasti), application rate 70 g ai/ha, read-out: Visual Growth Reduction (%) 14 Days After Application, ABUTH): 95 to 100% | pest or weed control at 140 g/ha ([1]; ABUTH: velvetleaf (Abutilon theophrasti), application rate 140 g ai/ha, read-out: Visual Growth Reduction (%) 14 Days After Application, ABUTH): 95 to 100% | pest or weed control at 70 g/ha ([1]; AMARE: redroot pigweed (Amaranthus retroflexus), application rate 70 g ai/ha, read-out: Visual Growth Reduction (%) 14 Days After Application, AMARE): 95 to 100% | pest or weed control at 140 g/ha ([1]; AMARE: redroot pigweed (Amaranthus retroflexus), application rate 140 g ai/ha, read-out: Visual Growth Reduction (%) 14 Days After Application, AMARE): 95 to 100% | pest or weed control at 70 g/ha ([1]; BRSNN: oilseed-rape, canola (Brassica napus), application rate 70 g ai/ha, read-out: Visual Growth Reduction (%) 14 Days After Application, BRSNN): 85 to 94% | pest or weed control at 140 g/ha ([1]; BRSNN: oilseed-rape, canola (Brassica napus), application rate 140 g ai/ha, read-out: Visual Growth Reduction (%) 14 Days After Application, BRSNN): 95 to 100% | pest or weed control at 70 g/ha ([1]; CHEAL: lambsquarters (Chenopodium album), application rate 70 g ai/ha, read-out: Visual Growth Reduction (%) 14 Days After Application, CHEAL): 95 to 100% | pest or weed control at 140 g/ha ([1]; CHEAL: lambsquarters (Chenopodium album), application rate 140 g ai/ha, read-out: Visual Growth Reduction (%) 14 Days After Application, CHEAL): 95 to 100% | pest or weed control at 70 g/ha ([1]; EPHHL: wild poinsettia (Euphorbia heterophylla), application rate 70 g ai/ha, read-out: Visual Growth Reduction (%) 14 Days After Application, EPHHL): 95 to 100% | pest or weed control at 140 g/ha ([1]; EPHHL: wild poinsettia (Euphorbia heterophylla), application rate 140 g ai/ha, read-out: Visual Growth Reduction (%) 14 Days After Application, EPHHL): 95 to 100% | pest or weed control at 70 g/ha ([1]; HELAN: sunflower (Helianthus annuus), application rate 70 g ai/ha, read-out: Visual Growth Reduction (%) 14 Days After Application, HELAN): 75 to 84% | pest or weed control at 140 g/ha ([1]; HELAN: sunflower (Helianthus annuus), application rate 140 g ai/ha, read-out: Visual Growth Reduction (%) 14 Days After Application, HELAN): 85 to 94% | pest or weed control at 70 g/ha ([1]; VIOTR: wild pansy (Viola tricolor), application rate 70 g ai/ha, read-out: Visual Growth Reduction (%) 14 Days After Application, VIOTR): 95 to 100% | pest or weed control at 140 g/ha ([1]; VIOTR: wild pansy (Viola tricolor), application rate 140 g ai/ha, read-out: Visual Growth Reduction (%) 14 Days After Application, VIOTR): 95 to 100% | pest or weed control at 70 g/ha [2, 11]: 45 to 59% | pest or weed control at 140 g/ha [2, 11]: 45 to 59% | pest or weed control at 70 g/ha [2, 3]: 95 to 100% | pest or weed control at 70 g/ha [2, 4]: 60 to 74% | pest or weed control at 140 g/ha [2, 4]: 60 to 74% | pest or weed control at 70 g/ha [2, 5]: 75 to 84% | pest or weed control at 140 g/ha [2, 5]: 75 to 84% | pest or weed control at 70 g/ha [2, 6]: 0 to 29% | pest or weed control at 140 g/ha [2, 6]: 0 to 29% | pest or weed control at 70 g/ha [2, 8]: 95 to 100% | pest or weed control at 140 g/ha [2, 8]: 95 to 100% | pest or weed control at 70 g/ha [2, 10]: 60 to 74% | pest or weed control at 140 g/ha [2, 10]: 75 to 84%
